Measured values published in US20250144247A1, “FORMULATIONS TO ENHANCE THE DELIVERY OF GENE THERAPY VECTORS” (priority 2023, published 2025).
Like-named read-outs stand apart in the source and are kept apart here.

Legend:
[1] = system: CFTR anion transport in CF HAE; assay: Ussing chamber short circuit current and conductance of CF HAE; assay type: cell-based, human
[2] = system: human airway epithelial cells (HAE); assay: LDH release / integrity of HAE; assay type: cell-based
Method: GFP images were acquired using a Keyence All-in-one Fluorescence Microscope BZ-X series (Osaka, Japan). 0.33 cm^2 Transwells were imaged at 2× magnification. GFP expression was quantified by flow cytometry as previously reported (36). Briefly, cells were stained with a fixable LIVE/DEAD stain (Thermo Fisher Scientific, Waltham, MA, USA), lifted in Accutase at 37° C. for 30 minutes, and run through an Attune NxT Flow Cytometer (Thermo Fisher Scientific, Waltham, MA, USA). Cells were treated with the Foxp3/Transcription Factor Staining Buffer Set (Thermo Fisher Scientific, Waltham, MA, USA) according to manufacturer's recommendations and stained for 1 hour at 37° C. with the following antibodies: NGFR (345110; 1:600, BioLegend, San Diego, CA, USA), α-tubulin (NB100-69AF405, 1:300, Novus, Centennial, CO, USA) and CD66c (12-0667-42, 1:600, Invitrogen, Waltham, MA). Expression was gated on live cells. Immunofluorescence staining of pig tissue sections was performed using acetylated α-tubulin (D20G3, 1:200, Cell Signaling Technology, Danvers, MA) or cytokeratin 5 (CK5) (Polyl9055, 1:500, San Diego, CA). Primary antibodies were detected using a goat anti-rabbit Alexa 546 secondary anti-body (A-11035, 1:600, Thermo Fisher Scientific, Waltham, MA).
LDH release was quantified according to the manufacturer's recommendations (LDH-Glo Cytotoxicity Assay, Promega, Madison, WI). Briefly, basolateral media from each condition was collected in a 96 well plate. The LDH detection reagents were mixed in a 1:1 ratio and applied to each well and incubated for 30 minutes. Luminescence was recorded using a SpectraMax i3x plate reader.

[3] = system: human airway epithelial cells (HAE); assay type: cell-based; conditions: for Ad gene transfer: imaged 5 days

Question: Which “Cl− secretion (short circuit current and conductance, F&I and GlyH)” value ([1]; CF HAE, Ad-CFTR (MOI=250) and NaCl 3.6%, apical 2 hours, 5 days) does the source give for [Cl-].[Na+] [NaCl, sodium chloride] here?
Answer: wild-type levels of Cl^− secretion

Question: What about the “anion channel activity responses to F&I and GlyH” value ([1]; CF airway cultures, AAV2.5T-CFTR with NaCl 4.5%, 2 weeks) of the same compound?
Answer: increased anion channel activity responses

Question: And the CFTR-dependent anion transport ([1]; primary CF HAE, GP64 HIV-CFTR (MOI=50) in the presence of NaCl 4.5%)?
Answer: restored the CFTR-dependent anion transport

Question: What about the “effects on HAE integrity in vitro” value ([2]; 5% NaCl formulation) of the same compound?
Answer: negative effects on HAE integrity

Question: What about the LDH release ([2]; highest concentrations of NaCl (5-7%)) of the same compound?
Answer: increased LDH release

Question: What about the “NaCl doses with ultimate toxicity” value ([2]; in vitro HAE) of the same compound?
Answer: > 6%

Question: What about the Ad gene transfer ([3]; 0.9% NaCl (PBS), Ad-GFP MOI=250, apical 2 hours) of the same compound?
Answer: did not enhance Ad gene transfer

Question: And the “transduction of basal, secretory and ciliated cells” value ([3]; 1-7% NaCl, Ad-GFP MOI=250)?
Answer: all transduced in a dose dependent manner

Question: And the “Ad-GFP transduction efficiency, comparison of osmolytes” value ([3]; 3.6% NaCl vs 3.6% NaGluconate, 3.6% KCl, 0.9% NaCl, 0.9% NaCl + mannitol, 2 h, 5 days)?
Answer: greatest increase in transduction efficiency

Question: And the Ad gene transfer ([3]; Ad-GFP MOI=250 combined 1:1 with reagent, apical 2 hours, LPC 0.1%, EGTA 250 mM, doxorubicin 5 μM, NaCl 3.6%, Infasurf)?
Answer: conferred remarkable transduction

Question: What about the “co-treatment time giving maximal expression” value ([3]; Ad-GFP with NaCl 3.6%) of the same compound?
Answer: 2 h

Question: And the “% GFP+ cells across pH range” value ([3]; NaCl 3.6% adjusted to pH 5, 6, 7, 7.4 and 8, Ad-GFP)?
Answer: no significant differences

Question: What about the “% GFP+ cells versus length of exposure” value ([3]; NaCl 3.6% or Ad-GFP for 5, 15, 30, 60 or 120 min) of the same compound?
Answer: increased incrementally with increasing temporal exposure

Question: And the “Ad transduction efficiency (% GFP+ cells)” value ([3]; dose response 1-7% NaCl final, Ad-GFP MOI=250)?
Answer: dose dependent increase in transduction efficiency

Question: What about the “benefit on Ad transduction” value ([3]; ≤3% NaCl) of the same compound?
Answer: little benefit on transduction
